In US8853246B2 (Dow AgroSciences LLC, priority 2009, dated 2014):
Like-named read-outs stand apart in the source and are kept apart here.

Experiments:
[1] = test system: Green Peach Aphid (Myzus Persicae); experiment: Insecticidal test for green peach aphid in foliar spray assay (col. MYZUPE); assay type: in vivo; conditions: Myzus persicae, 72 h, read-out: MYZUPE 200 ppm (Corrected % Control, rating)
In short: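 Cabbage seedlings with 2-3 true leaves, infested with 20-50 wingless adult and nymph aphids one day earlier, sprayed to runoff at 200 ppm (acetone/methanol stock diluted in 0.025% Tween 20), four pots per treatment. After 3 days at ~25 °C, 40% RH, live aphids counted; corrected % control versus solvent-sprayed plants.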

[2] = test system: Cotton Aphid (Aphis Gossypii); experiment: Insecticidal test for cotton aphid in foliar spray assay (col. APHIGO); assay type: in vivo; conditions: Aphis gossypii, 72 h, read-out: APHIGO 200 ppm (Corrected % Control, rating)
Procedure: The compounds were tested against cotton aphid, green peach aphid, and sweet potato whitefly using procedures described in the following examples and reported in Table 2.
In each case of Table 2, the rating scale is as follows at 200 ppm.
Insecticidal Test for Cotton Aphid (Aphis Gossypii) in Foliar Spray Assay
Squash or cotton seedlings with fully expanded cotyledon leaves were trimmed to one cotyledon per plant and infested with cotton aphid (wingless adult and nymph) one day prior to chemical application. Each plant was examined before chemical application to ensure uniform infestation (ca. 30-70 aphids per plant). Compounds (2 mg) were dissolved in 2 mL of acetone/methanol (1:1) solvent, forming stock solutions of 1000 ppm. The stock solutions were diluted 5× with 0.025% Tween 20 in H2O to obtain a solution at 200 ppm. A hand-held Devilbiss aspirator type sprayer was used to apply the spray solutions until runoff to both sides of the squash cotyledon leaves. Four plants (4 replications) were used for each concentration of each compound. Reference plants (solvent check) were sprayed with the diluent only. Treated plants were held in a holding room for three days at approximately 25° C. and 40% RH before the number of live aphids on each plant was recorded. Insecticidal activity was measured by Corrected % Control using Abbott's correction formula and presented in Table 2 (see col. “APHIGO”): Corrected % Control=100*(X−Y)/X • where X=No. of live aphids on solvent check plants • Y=No. of live aphids on treated plants

[3] = test system: Sweetpotato Whitefly-Crawler (Bemisia Tabaci); experiment: Insecticidal test for sweetpotato whitefly-crawler in foliar spray assay (col. BEMITA); assay type: in vivo; conditions: Bemisia tabaci, read-out: BEMITA 200 ppm (Corrected % Control, rating)
In short: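 Cotton plants (one 3-5 cm true leaf) infested with whitefly eggs (100-300/plant), held 5-6 days at 82° F, 50% RH until crawlers developed. Sprayed to runoff at 200 ppm (acetone stock diluted in 0.025% Tween 20), four plants per treatment. Live nymphs counted after 8-9 days; % control by Abbott's correction versus solvent check.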

| SMILES | pest or weed control at 200 ppm ([1]; green peach aphid) | pest or weed control at 200 ppm [2] | pest or weed control at 200 ppm ([3]; sweetpotato whitefly-crawler) | melting point | pest or weed control at 200 ppm ([1]; Abbott's correction formula) | pest or weed control at 200 ppm ([3]; Abbott's correction formula) |
| --- | --- | --- | --- | --- | --- | --- |
| CC(C[S+](C)[O-])C(=O)N(C)c1sc(-c2cncc(F)c2)nc1Cl (stereo not drawn) [Compound 270] | 80 to 100% | < 80% | 80 to 100% | – | – | – |
| Cc1nc(-c2cncc(F)c2)sc1NC(=O)C(C)CS(C)(=O)=O (stereo not drawn) [Compound 146] | 80 to 100% | – | < 80% | 187 to 189 °C | – | – |
| Cc1nc(-c2cccnc2)sc1NC(=O)c1cccc(SC(F)F)c1 [Compound 381] | < 80% | – | < 80% | 158 to 159 °C | – | – |
| CCOC(=O)c1cncc(-c2nc(C)c(NC(=O)OC(C)(C)C)s2)c1 [Compound 160] | < 80% | – | < 80% | 124 to 128 °C | – | – |
| CS(=O)(=O)CCC(=O)Nc1sc(-c2cncc(F)c2)nc1Cl [Compound 459] | – | – | – | 239 to 240 °C | 80 to 100% | < 80% |
| CSCCC(=O)Nc1sc(-c2cccnc2)nc1SC [Compound 589, 3-(methylthio)-N-(4-(methylthio)-2-(pyridin-3-yl)thiazol-5-yl)propanamide] | – | – | – | 72 to 74 °C | < 80% | < 80% |
| CSCCC(=O)Nc1sc(-c2cncc(F)c2)nc1Br [Compound 298] | 80 to 100% | – | < 80% | 160 to 163 °C | – | – |
| CC(C)(C)OC(=O)Nc1sc(-c2cccnc2)nc1F [Compound 478] | – | – | – | 184 to 186 °C | 80 to 100% | < 80% |
| C=CC(=O)N(C(=O)OC(C)(C)C)c1sc(-c2cccnc2)nc1C [Compound 205] | 80 to 100% | – | 80 to 100% | 68 to 70 °C | – | – |
| Cc1nc(-c2cccnc2)sc1NC(=O)OC(C)C(F)(F)F (stereo not drawn) [Compound 378] | 80 to 100% | – | 80 to 100% | 133 to 137 °C | – | – |
| CSCC(C)C(=O)N(C(=O)OC(C)(C)C)c1sc(-c2cncc(C#N)c2)nc1C (stereo not drawn) [Compound 158] | < 80% | – | < 80% | 125 to 128 °C | – | – |
| CC(C)(C)OC(=O)N(COCc1ccccc1)c1cnc(-c2cccnc2)s1 [Compound 265] | 80 to 100% | – | < 80% | 98 to 99 °C | – | – |
| CSCC(C)C(=O)Nc1sc(-c2ccc(F)nc2)nc1C (stereo not drawn) [Compound 159] | 80 to 100% | – | 80 to 100% | 143 to 146 °C | – | – |
| Cc1nc(-c2cncc(F)c2)sc1N(C)C(=O)C1CCCN(C(=S)NC2CC2)C1 (stereo not drawn) [Compound 585] | – | – | – | 190 to 192 °C | 80 to 100% | < 80% |
| C=CC(=O)Nc1sc(-c2cncc(F)c2)nc1C#N [Compound 502] | – | – | – | 231 to 232 °C | < 80% | < 80% |
| Cc1nc(-c2cccnc2)sc1NC(=O)C(C)CS(C)(=O)=O (stereo not drawn) [Compound 99] | 80 to 100% | – | 80 to 100% | 175 to 180 °C | – | – |
| Cc1nc(-c2cccnc2)sc1NC(=O)c1cnn(C)c1 [Compound 355] | 80 to 100% | – | < 80% | 219 to 222 °C | – | – |
| Cc1nc(-c2cncc(F)c2)sc1NC(=O)C(C)(C)CS(C)(=O)=O [Compound 144] | 80 to 100% | – | < 80% | 157 to 167 °C | – | – |
| CSCC(C)C(=O)N(C)c1sc(-c2cncc(Br)c2)nc1C (stereo not drawn) [Compound 296] | 80 to 100% | – | 80 to 100% | 79 to 81 °C | – | – |
| CSCC(C)C(=O)N(C)c1cnc(-c2cncc(F)c2)s1 (stereo not drawn) [Compound 31] | 80 to 100% | – | 80 to 100% | 75 to 77 °C | – | – |
| CCCC(C)(C)OC(=O)N(C)c1sc(-c2cccnc2)nc1C [Compound 491] | – | – | – | 65 to 69 °C | 80 to 100% | 80 to 100% |

| SMILES | pest or weed control at 200 ppm ([1]; green peach aphid) | pest or weed control at 200 ppm [2] | pest or weed control at 200 ppm ([3]; sweetpotato whitefly-crawler) | melting point | pest or weed control at 200 ppm ([1]; Abbott's correction formula) | pest or weed control at 200 ppm ([3]; Abbott's correction formula) |
| --- | --- | --- | --- | --- | --- | --- |
| Cc1nc(-c2cncc(F)c2)sc1NC(=O)C1CCSC1 (stereo not drawn) [Compound 219] | 80 to 100% | – | < 80% | 209 to 213 °C | – | – |
| CSC(C)C(=O)N(C)c1sc(-c2cccnc2)nc1Cl (stereo not drawn) [Compound 361] | 80 to 100% | – | < 80% | 97 to 104 °C | – | – |
| CC(C)C(=O)N(C)c1cnc(-c2ccc(Cl)nc2)s1 [Compound 69] | < 80% | – | 80 to 100% | 155 to 159 °C | – | – |
| CCN(C(=O)c1cn(C)nc1C(F)(F)F)c1sc(-c2cccnc2)nc1Cl [Compound 547] | – | – | – | 110 to 111 °C | 80 to 100% | 80 to 100% |
| CN(C(=O)CC[S+](C)[O-])c1sc(-c2cncnc2)nc1Cl (stereo not drawn) [Compound 510] | – | – | – | 137 to 140 °C | 80 to 100% | 80 to 100% |
| CCSCC(=O)N(C)c1sc(-c2cccnc2)nc1Cl [Compound 370] | 80 to 100% | – | 80 to 100% | 68 to 71 °C | – | – |
| Cc1nc(-c2cncc(C#N)c2)sc1NC(=O)OC(C)(C)C [Compound 151] | < 80% | – | < 80% | 171 to 174 °C | – | – |
| CC(C)C(=O)N(C)c1cnc(-c2cncc(F)c2)s1 [Compound 32] | 80 to 100% | – | 80 to 100% | 156 to 158 °C | – | – |
| Cc1nn(CC(=O)N(C)c2sc(-c3cccnc3)nc2Cl)c(C)c1S(=O)(=O)N(C)C [Compound 390] | < 80% | – | 80 to 100% | 185 to 186 °C | – | – |
| CN(C(=O)OC(C)(C)C)c1sc(-c2cncc(F)c2)nc1Br [Compound 318] | 80 to 100% | – | < 80% | 108 to 110 °C | – | – |
| CSCCNC(=O)N(C)c1sc(-c2cccnc2)nc1C [Compound 177] | 80 to 100% | – | < 80% | 115 to 119 °C | – | – |
| CN(C(=O)CC[S+](C)[O-])c1sc(-c2cncc(F)c2)nc1Br (stereo not drawn) [Compound 454] | – | – | – | 170 to 173 °C | 80 to 100% | 80 to 100% |
| CCN(C(=O)c1sc(C)nc1C(F)(F)F)c1sc(-c2cccnc2)nc1Cl [Compound 548] | – | – | – | 102 to 103 °C | 80 to 100% | 80 to 100% |
| Cc1nc(-c2cccnc2)sc1NC(=O)C(C)C [Compound 58] | 80 to 100% | – | 80 to 100% | 159 to 162 °C | – | – |
| CC(C)(C)OC(=O)N(C(=O)OC(C)(C)C)c1sc(-c2cncc(F)c2)nc1Cl [Compound 352] | 80 to 100% | – | < 80% | 125 to 128 °C | – | – |
| CCN(C(=O)C(C)CS(C)(=O)=O)c1sc(-c2cccnc2)nc1Cl (stereo not drawn) [Compound 349] | 80 to 100% | – | 80 to 100% | 152 to 154 °C | – | – |
| Cc1nc(-c2cccnc2)sc1NC(=O)C(C)(C)C[S+](C)[O-] (stereo not drawn) [Compound 94] | 80 to 100% | – | < 80% | 55 to 60 °C | – | – |
| CN(C(=O)CC[S+](C)[O-])c1sc(-c2cncc(F)c2)nc1F (stereo not drawn) [Compound 392] | 80 to 100% | – | 80 to 100% | 113 to 116 °C | – | – |
| CC(CS(C)(=O)=O)C(=O)N(C)c1sc(-c2cncc(F)c2)nc1Cl (stereo not drawn) [Compound 271] | 80 to 100% | – | 80 to 100% | 151 to 154 °C | – | – |
| CCN(C(=O)c1cc(Cl)cc(Cl)c1)c1sc(-c2cccnc2)nc1Cl [Compound 564] | – | – | – | 172 to 174 °C | < 80% | < 80% |
| CSCCC(=O)N(C(=O)OC(C)(C)C)c1sc(-c2cncc(F)c2)nc1C#N [Compound 494] | – | – | – | 105 to 106 °C | < 80% | < 80% |
